Results from patent publication US20170044107A1, “Inhibitors of JMJD2C as Anticancer Agents” (The J. David Gladstone Institutes, priority 2014, published 2017).
Counter-ions that a name gives are not always drawn.

Key:
Assay type in all cases: cell-based
[1] = system: CWR22Rv1 androgen-independent prostate cancer cells; experiment: CellTiter-Glo Luminescent Cell Viability Assay, CWR22Rv1 cells; settings: 48 hours treatment, % of survival normalized to DMSO control; for viability at 10 µM: CWR22Rv1, compound at 10 μM
Protocol: (§1) Cell viability assays were performed on three representative prostate cancer cell lines (i.e., CWR22Rvl, PC3 and DU145) to determine the effect of treatment with a series of 8-hydroxyquinoline derivatives.
(§2) Cell viability was assessed 48 hours after compound treatment with the CellTiter-Glo® Luminescent Cell Viability Assay (Promega), according to the manufacturer's protocol. Briefly, 5000 cells were plated into 96-well cell culture plates in DMEM supplemented with 10% FBS. After overnight incubation, compounds at indicated concentrations were added and the treatment was maintained for two days. At the end of compound treatment, 5.0 μL of CellTiter-Glo® Reagent was added to each well. Plates were returned to the incubator for 2 hours. Plates were then removed from the incubator and luminescence was measured in a standard luminescence plate reader. The luminescence signal was then used to calculate % of survival normalized to DMSO control treatment.

[2] = system: PC3 androgen-independent prostate cancer cells; experiment: CellTiter-Glo Luminescent Cell Viability Assay, PC3 cells; settings: 48 hours treatment, % of survival normalized to DMSO control; for viability at 2 µM: Homo sapiens, PC-3, compound at 2 μM
Protocol: as §1, §2

[3] = system: DU145 androgen-independent prostate cancer cells; experiment: CellTiter-Glo Luminescent Cell Viability Assay, DU145 cells; settings: 48 hours treatment, % of survival normalized to DMSO control; for viability at 2 µM: Homo sapiens, DU-145, compound at 2 μM
Protocol: as §1, §2

| Compound | viability at 10 µM [1] | viability at 2 µM [2] | viability at 2 µM [3] | % CWR22Rv1 Survival (Compound at 10 μM) [1] | % PC3 Survival (Compound at 2 μM) [2] | % DU145 Survival (Compound at 2 μM) [3] |
| --- | --- | --- | --- | --- | --- | --- |
| CCC(=O)NC(c1ccccc1OC)c1cc(Cl)c2cccnc2c1O (stereo not drawn) [SD70-8, N-((5-chloro-8-hydroxyquinolin-7-yl)(2-methoxyphenyl)methyl)propionamide] | 10% | 61% | 42% |  |  |  |
| N-((8-hydroxyquinolin-7-yl)(4-methoxyphenyl)methyl)isobutyramide isobutyramide [SD70-22] |  |  |  | 18% | 13% | 21% |
| CCCC(=O)NC(c1ccco1)c1cc(Cl)c2cccnc2c1O (stereo not drawn) [SD70-4, N-((5-chloro-8-hydroxyquinolin-7-yl)(furan-2-yl)methyl)butyramide] | 110% | 7% | 29% |  |  |  |
| COc1ccc(C(=O)NC(c2ccco2)c2cc(Cl)c3cccnc3c2O)cc1 (stereo not drawn) [SD70-6, N-((5-chloro-8-hydroxyquinolin-7-yl)(furan-2-yl)methyl)-4-methoxybenzamide] | 21% | 24% | 50% |  |  |  |
| Oc1ccc(COCc2ccccc2)c2cccnc12 [SD70-16, 5-(benzyloxymethyl)quinolin-8-ol] | 20% | 14% | 19% |  |  |  |
| CCC(=O)NC(c1ccco1)c1cc([N+](=O)[O-])c2cccnc2c1O (stereo not drawn) [SD70-10, N-(furan-2-yl(8-hydroxy-5-nitroquinolin-7-yl)methyl)propionamide] | 110% | 93% | 100% |  |  |  |
| CCC(=O)NC(c1ccc(OC)c(OC)c1)c1cc(Cl)c2cccnc2c1O (stereo not drawn) [SD70-9, N-((5-chloro-8-hydroxyquinolin-7-yl)(3,4-dimethoxyphenyl)methyl)propionamide] | 18% | 21% | 10% |  |  |  |
| CCC(=O)NC(c1ccco1)c1ccc2cccnc2c1O (stereo not drawn) [SD70-11, N-(furan-2-yl(8-hydroxyquinolin-7-yl)methyl)propionamide] | 16% | 79% | 120% |  |  |  |
| COc1ccc(C(NC(=O)C(C)C)c2ccc3cccnc3c2O)cc1OC (stereo not drawn) [SD70-24, N-((3,4-dimethoxyphenyl)(8-hydroxyquinolin-7-yl)methyl)isobutyramide] | 12% |  |  |  |  |  |
| CCC(=O)NC(c1ccco1)c1cc(Cl)c2cccnc2c1O (stereo not drawn) [SD70-1, N-((5-chloro-8-hydroxyquinolin-7-yl)(furan-2-yl)methyl)propionamide] | 93% | 47% | 87% |  |  |  |
| Oc1c(CN2CCN(c3ccccn3)CC2)ccc2cccnc12 [SD70-18, 7-((4-(pyridin-2-yl)piperazin-1-yl)methyl)quinolin-8-ol] | 27% | 125% | 110% |  |  |  |
| Oc1ccc(CCl)c2cccnc12 [SD70-15, 5-(chloromethyl)quinolin-8-ol hydrochloride] | 91% | 96% | 100% |  |  |  |
| O=C(COc1ccccc1)NC(c1ccco1)c1cc(Cl)c2cccnc2c1O (stereo not drawn) [SD70-7, N-((5-chloro-8-hydroxyquinolin-7-yl)(furan-2-yl)methyl)-2-phenoxyacetamide] | 28% | 21% | 21% |  |  |  |
| O=C(NC(c1ccco1)c1cc(Cl)c2cccnc2c1O)c1cccnc1 (stereo not drawn) [SD70-5, N-((5-chloro-8-hydroxyquinolin-7-yl)(furan-2-yl)methyl)nicotinamide] | 94% | 23% | 31% |  |  |  |
| Oc1c(CNCCN2CCOCC2)ccc2cccnc12 [SD70-19, 7-((2-morpholinoethylamino)methyl)quinolin-8-ol] | 107% | 98% | 94% |  |  |  |
| CC(C)C(=O)NC(c1ccc([N+](=O)[O-])cc1)c1ccc2cccnc2c1O (stereo not drawn) [SD70-25, N-((8-hydroxyquinolin-7-yl)(4-nitrophenyl)methyl)isobutyramide] | 16% |  |  |  |  |  |
| COc1c(C(NC(=O)C(C)C)c2ccco2)ccc2cccnc12 (stereo not drawn) [SD70-23, N-(furan-2-yl(8-methoxyquinolin-7-yl)methyl)isobutyramide] | 96% |  |  |  |  |  |
| CC(C)C(=O)NC(c1ccco1)c1ccc2cccnc2c1O (stereo not drawn) [SD70, N-(furan-2-yl(8-hydroxyquinolin-7-yl)methyl)isobutyramide] | 9% | 14% | 26% |  |  |  |
| Oc1c(CN2CCCCC2)ccc2cccnc12 [SD70-20, 7-(piperidin-1-ylmethyl)quinolin-8-ol] | 99% | 98% | 88% |  |  |  |
| CC(=O)NC(c1ccco1)c1cc(Cl)c2cccnc2c1O (stereo not drawn) [SD70-3, N-((5-chloro-8-hydroxyquinolin-7-yl)(furan-2-yl)methyl)acetamide] | 110% | 88% | 110% |  |  |  |
| CC(C)CCNCc1ccc2cccnc2c1O [SD70-21, 7-((isopentylamino)methyl)quinolin-8-ol] | 93% | 93% | 100% |  |  |  |
| CC(C)C(=O)NC(c1ccco1)c1cc(Cl)c2cccnc2c1O (stereo not drawn) [SD70-2, N-((5-chloro-8-hydroxyquinolin-7-yl)(furan-2-yl)methyl)isobutyramide] | 100% | 9% | 32% |  |  |  |
| Oc1ccc(CNCCN2CCOCC2)c2cccnc12 [SD70-17, 5-((2-morpholinoethylamino)methyl)quinolin-8-ol] | 7% | 98% | 100% |  |  |  |
